Molecules are shown by their SMILES.

In a melting point compilation (Tetko et al.; mined from patent text by program, amines drawn as free bases though some values may be those of a salt) one finds melting point data, which are given here for 89 molecules.

For orientation: melting point means the temperature, or range, at which the solid turns liquid. `NS(=O)(=O)c1ccc(CCN2C(=O)c3ccccc3C2(O)c2ccccc2)cc1` (centres undefined) displayed a melting point of 225 °C.
In the case of `CC(=O)OCCC1CCc2c(C3=C(c4cn(C)c5ccccc45)C(=O)OC3=O)c3ccccc3n2C1` (centres undefined) it was 182 to 184 °C.
In the case of `CC(=O)N(C)C1=C(C#N)CC(N)(C(=O)CCCl)C=C1` (centres undefined) it was 174 to 175 °C; in that of `N=C(N)Nc1nc(CSCCNC2=NS(=O)N=C2O)cs1` (centres undefined), 148 to 151 °C.
With `CN(CCCC(C(N)=O)(c1ccccc1)c1ccccc1)CCc1ccc(CN)cc1` the figure was 139 to 142 °C.
`COc1ccc(-c2nc(S(=O)(=O)c3nccs3)[nH]c2-c2ccc(OC)cc2)cc1` came in with a melting point of 219 °C.
In turn, `CCCCN(C=NC1=C(C(=O)OCC)C(c2ccccc2Cl)C(C(=O)OCC)=C(C)N1)CCCC` (centres undefined) came in with a melting point of 126 °C.
In the case of `O=[N+]([O-])c1nccn1CCI` it was 79 to 82 °C; in that of `O=C(Cl)Oc1c(CCl)cccc1CCl`, 71.5 to 73.5 °C; in that of `C#CCNC(NCCSCc1[nH]cnc1C)=C(C#N)C#N`, 112 to 115 °C.
For the molecule `O=c1[nH]c2ccc(CCN3CCN(c4ccc5ncccc5c4)CC3)cc2o1`, the melting point came to 200 °C.
Molecule `COc1cc(C=NN(C)C)c([N+](=O)[O-])cc1OC` returned a melting point of 143 to 145 °C.
In the case of `CC(=O)SC1CN(C(=O)OCc2ccccc2)C1` it was 94.5 to 95.5 °C; in that of `COc1ccc(NC(=O)C(=O)c2c3n(c4ccccc24)CCNCC3)cc1`, 177 to 180 °C; in that of `O=C1C(c2ccccc2)CC=C2c3ccsc3CCN12` (centres undefined), 159 to 161 °C.
With `CC1=CN2CCS(=O)(=O)N=C2C(c2ccc(Oc3ccccc3)cc2)=N1` the figure was 92 to 92.5 °C; with `O=C(O)CCC(=O)C(Cc1ccccc1)NC(=O)c1ccccc1` (centres undefined), 143 to 146 °C; with `O=S1(=O)N(CCCN2CC=C(c3ccccc3)CC2)c2cccc3cccc(c23)N1CCCN1CC=C(c2ccccc2)CC1`, 140 °C.
With `COC(=O)C=Cc1ccc(C(=O)O)s1` the figure was 156 °C.
`COc1ccc(N=Nc2ccc(O)c(C(=O)Nc3ccc4[nH]ncc4c3)c2)cc1` returned a melting point of 276 to 277 °C.
`CSc1nc(-c2ccncc2)n(-c2ccc(C(C)C)cc2)c(=O)c1C#N` returned a melting point of 173 to 175 °C.
Molecule `C1=C(c2nc(-c3ccccc3)no2)CCN(Cc2c[nH]c3ncccc23)C1` returned a melting point of 207 to 209 °C.
`CCCc1c(OC2CCCOC2)ccc2c(O)cc(=O)oc12` (centres undefined) showed a melting point of 163 to 165 °C.
In the case of `CCC1(CC)NS(=O)(=O)c2ccccc21` it was 174 °C; in that of `O=C(Nc1ccc2ccc(Oc3ccccc3)nc2n1)c1cccs1`, 176 °C; in that of `C=C(C(=O)c1cc(-c2cccs2)ccc1OC)c1ccc(C#N)cc1`, 86 to 88 °C.
In the case of `O=C(OCc1ccccc1)C(O)N1C(=O)C2CC=CCC21` (centres undefined) it was 92 to 93 °C.
Turning to `CSCCCn1nc(-c2cccc(C(F)(F)F)c2F)c(=O)c2ccccc21`, the melting point was in the range of 80 to 83 °C.
With `CCc1noc(C=C(N)c2ccccc2)c1C(=O)NC`, the melting point was 125 to 132 °C.
Turning to `COCc1cc(O[C@@H]2c3ccccc3C[C@H]2O)c2nc(C)c(C)n2c1` (relative stereo), the melting point was 142 to 143 °C.
`COc1cccc2c1Sc1c(OC)cccc1C2(CCOS(C)(=O)=O)CCOS(C)(=O)=O`: the melting point lay in the range of 176 to 178 °C.
In the case of `N#Cc1ccc2[nH]c(=O)c3ccccc3c(=O)c2c1` it was more than 300 °C; in that of `Clc1ccc2c(c1)N(c1ncnc3cnccc13)CC2`, 194 to 196 °C.
In the case of `COc1cc(OC)c2c(=O)[nH]c(-c3ccc(CCC(=O)O)cc3)nc2c1`, the melting point was 251 °C.
With `COc1ccc(-c2cnc(N3CCc4c([nH]c5ccccc45)C3c3ccc4c(c3)OCO4)nc2)cc1OC` (centres undefined) the figure was 173 to 175 °C; with `CCCc1ccc2nc(C(=O)OCC)cn2n1`, 54 to 54.5 °C; with `O=C(CNS(=O)(=O)c1ccc(N2CCC(c3ccccc3)CC2)cc1)NO`, 164 to 166 °C.
In turn, `COc1ccc(N2CCN(c3c(C)c(C)c4c(c3C)C(=O)C(C)(C)O4)CC2)cc1C` yielded a melting point of 129 to 131 °C.
With `Nc1nc(N)nc(N(c2ccc(OCOc3ccc(N(c4nc(N)nc(N)n4)c4nc(N)nc(N)n4)cc3)cc2)c2nc(N)nc(N)n2)n1` the figure was more than 300 °C; with `c1ccc(-c2cc3n(n2)CCNC3CC2CCCCC2)cc1` (racemic), 128 to 130 °C; with `CSc1ccc(C(=N)Nc2ccc(C)cc2)cc1`, 143 to 145 °C.
As to `O=C(Cc1ccccc1)c1cc(O)c(O)c([N+](=O)[O-])c1`, the melting point lay within 181 to 182 °C.
With `CCOC(=O)COc1ccccc1Cn1c(-c2ccc(C(F)(F)F)cc2)c(C)c2cc(OCc3ccccc3)ccc21` the figure was 221 °C; with `OCc1nn(Cc2ccccc2)c2ccccc12`, 85 to 86 °C; with `COCC(OC(C)=O)C1CC(=O)C2(C)CCC3C(CCC4=CC(=O)C=C(C)C43C)C12` (centres undefined), 184 to 185 °C.
In the case of `COc1cc(SC(F)F)nc(N)n1` it was 83 to 84 °C; in that of `COc1ccc(Nc2ccncc2)c(C(=O)N2CCCCC2)c1`, 176 to 178 °C; in that of `CC(=O)N(C(=O)OC(C)(C)C)c1ccc(-c2nc3n(Cc4c(F)cccc4F)cc(-c4ccccc4)c(=O)n3c2C)cc1`, 220 to 222 °C.
With `CCc1nc(-c2ccc(OCCCc3ccccc3)cc2)no1` the figure was 41 to 42 °C.
For `C=C(C)OC(=O)c1ccc(C(=O)OC(=C)C)cc1`, the melting point lay in the range of 72 to 73.5 °C.
With `Cc1nnc(-c2cccc(-c3cnc4[nH]cc(C(=O)C5(C)CCCCC5)c4n3)c2)o1` the figure was 234 to 236 °C; with `COc1cc2c(cc1OC)-c1c(C(=O)NC3CCCCC3)c(-c3cc(C)c(O)c(C)c3)c(C)n1CC2`, 273 to 276 °C; with `CCOC(=O)C1=C(O)c2cc3ccccc3n2CCC1`, 74 to 81 °C.
With `CC1CCC2(OC1)OC1CC3C4CC(=O)C5CCCCC5(C)C4CCC3(C)C1C2C` (centres undefined) the figure was 210 to 212 °C; with `O=C1c2cc(OC(F)F)ccc2CN1c1ccc2c(c1)CCC2`, 137 to 139 °C; with `CC1(C)CN2C(=O)c3ccccc3C(O)(c3ccccc3)C2=N1` (centres undefined), 186 to 188 °C.
With `Cc1ccnc(Cn2ccnc2)c1O` the figure was 170 to 172 °C; with `N#Cc1cnn(-c2ccc(F)cc2F)c1Cl`, 120 to 122 °C; with `COc1ccc(C(CC(C)=O)N2C(=O)c3cccc(NC(C)=O)c3C2=O)cc1OC1CCCC1` (centres undefined), 145 to 147 °C.
On to `COc1cc(O)c(CN2CCc3cc(O)ccc3C2)c(OC)c1`, for which the melting point fell in the range of 109 to 112 °C.
In the case of `CCC(C)(C)NCCC(C(=O)O)C(=O)c1ccc(Cl)cc1Cl` (centres undefined) it was 124 to 126 °C.
With `CC(=S)NCC1CN(c2ccc3c(c2)CC(C(C)(C)C)N3C=O)C(=O)O1` (centres undefined) the figure was 219 to 221 °C.
`NC(=O)c1ccc(N2CCN(CCC3=CCCc4ccccc43)CC2)cc1` had a melting point of 216 °C.
`CC1=CC(OCc2ccccc2)(OC(=O)c2ccc(Br)c(OCCn3cnnn3)c2C)N(C)N1` (centres undefined) gave a melting point of 122 to 125 °C.
In the case of `CC1CCc2ccc(CC(=O)O)cc2C(=O)C1` (centres undefined) it was 105 to 107 °C; in that of `CC[C@@H](c1ccc(C(F)(F)F)cc1)N(Cc1ccc(C(=O)OC)cc1)S(=O)(=O)c1ccc(Cl)cc1`, 120 to 121 °C.
With `CCCn1c(=O)c(=O)[nH]c2cc([N+](=O)[O-])c(-n3ccc(=O)cc3)cc21`, the melting point was more than 300 °C.
On to `COC(=O)C(c1ccc(Cl)cc1)(c1ccc(Cl)cc1)c1ncc[nH]1`, for which the melting point stood at 132 °C.
In the case of `Cc1nn(-c2ccc(Cl)cc2F)c(=O)[nH]1` it was 115 °C; in that of `CCCn1cc(Cc2ccc(C(=O)O)cc2OC)c2cc(C=CCC(=O)N(C)C)ccc21`, 124 to 126 °C; in that of `CC(=O)NC1CC(C)(C)N(OC(C)=O)C(C)(C)C1`, 129 to 132 °C.
With `COc1ccc(C2CNCc3c2ccc(OC)c3Cl)cc1OC` (centres undefined) the figure was 130 to 132 °C; with `Cc1cc(-c2cc(COS(C)(=O)=O)c(=O)n(CC(C)C)n2)ccc1F`, 115 to 117 °C; with `CCOC(=O)COC(=O)Cc1ccc2cc(OC)ccc2c1`, 38 to 40 °C.
`CC(CCC(=O)O)C(=O)N1c2ccccc2CCC1C(=O)O` (centres undefined) yielded a melting point of 117 to 119 °C.
With `O=C(O)CCCNC(=O)c1ccccc1NC(=O)c1ccc(Cl)cc1` the figure was 182 to 184 °C.
Take `O=C(O)C(=O)c1ccc(OC/C=C/c2ccc(F)cc2)cc1`: the melting point was in the range of 132 to 133 °C.
With `COc1ccc(OC(C)=O)cc1[N+](=O)[O-]` the figure was 93 to 97 °C; with `COc1cc(C(=O)c2ncc3c(OC)cccn23)ccc1N`, 229 °C; with `CCOC(=O)C1=C(C=O)NC(C=O)=C(C(=O)OCC)C1c1ccccc1Cl`, 85 to 86 °C.
The molecule `CC=CC(=O)C1C(C)C(=O)CCC1(C)C` (centres undefined) had a melting point of 76 to 77 °C.
In the case of `CC(C)C(OCc1ccccc1)[C@H]1[C@H]([N+](=O)[O-])[C@@H](c2ccco2)N[C@@H]1C(=O)NCCC(=O)O` (some centres undefined) it was 70 to 72 °C; in that of `CN1CCCC1CCNc1ncc2c(c1C#N)-c1ccccc1C(c1ccc(Cl)c(Cl)c1)C2` (centres undefined), 131 to 134 °C.
In the case of `O=C1c2cccc(NC(=S)Nc3ncccc3Br)c2C2CCCCN12` (centres undefined) it was 180 °C.
With `Nc1ncnc2c1c(I)cn2C1CC(O)C(CO)O1` (centres undefined) the figure was 194 °C.
`NS(=O)(=O)c1ccc(NN=C2C(=O)Nc3ccc(S(N)(=O)=O)cc32)cc1` displayed a melting point of more than 250 °C.
Turning to `COC1CCN(c2c(F)cc3c(=O)c(C(=O)O)cn4c3c2CCC4C)CC1` (centres undefined), the melting point lay within 249 to 251 °C.
For `O=C1c2c(-c3ccccc3)noc2CCC1CCCN1CCOCC1` (centres undefined), the melting point lay within 86 to 88.5 °C.
Molecule `N#Cc1ccccc1COc1cccc(Cl)c1` came in with a melting point of 56 °C.
